Data as given in patent publication US9562085B2, “Antimicrobial peptide” (priority 2013, dated 2017).
Read-outs that look alike come from different tables or passages of the source. Non-standard residues stand in square brackets, D forms with d. Residues, ends and D or L forms follow the SMILES beside them. *: point of attachment. Propionyl = CCC(=O)*

Assays:
S. aureus JAR = format: cell-based
Protocol: S. aureus JAR is described in Campoccia et al. (Int. J. Artif. Organs, 2008 September; 31(9):841-7).
For the in vitro killing assay with P10 variants, S. aureus JAR ([…] CFU/ml) were incubated for 2 hours at 37° C. with various concentrations of the peptides in PBS or in PBS/human plasma (1/1, v/v). […] The LC99.9 is the average value of two independent experiments.

MRSA LUH14616 = experiment: In vitro killing assay on mid-log phase bacteria, MRSA LUH14616; format: cell-based, Staphylococcus aureus; conditions: MRSA LUH14616 in PBS, 1 hour at 37° C.; 90% Inhibitory Concentration, linear regression
From the text: The clinical isolate of methicillin-resistant Staphylococcus aureus (MRSA), LUH14616 was kindly provided by Dr. S. Croes, Maastricht University Medical Center, Maastricht, Netherlands (see S.B.M.C. Croes, Microbiol. 2009; 9:229. doi: 10.1186/1471-2180-9-229) and that of mupirocine-resistant MRSA LUH15051 was a gift from Dr. M.E.O.C. Heck (Laboratory for Infectious Diseases and Screening, National Institute for Public Health and Environment, RIVM, Bilthoven, Netherlands).
Bacteria were stored at -80° C. until use. Inoculi of mid-log phase bacteria were prepared by incubating isolated MRSA colonies from blood agar plates in Tryptic Soy Broth (TSB) medium (Becton Dickinson, Le Pont de Clax, France) for 2.5 hours and then diluted to the concentration needed.
For the in vitro killing assay on mid-log phase bacteria, MRSA LUH14616 and MRSA LUH15051 were resuspended to a concentration of 1×10^6 bacteria/ml in PBS. Subsequently, 200 μl was added to a concentration range of peptides LL-37, P60.4Ac (OP-145) and P10 that were lyophilized in advance. Subsequently, the bacteria-peptide mixture was incubated for 1 hour at 37° C. To establish the killing capacity of these peptides, the suspensions were serially diluted and plated onto DST agar plates to measure viable CFU counts. IC90, IC99 and IC99.9 values are calculated by linear regression analysis.

Compound | LC99.9 (μM) (50% plasma) (S. aureus JAR; JAR, 2 h) | LC99.9 (μM) (PBS) (S. aureus JAR; JAR, 2 h) | LC99.9 (μM) (50% plasma) (S. aureus JAR; S. aureus JAR, 2 hours at 37° C. in PBS/human plasma (1/1, v/v), concentration killing 99.9% of the bacteria, average of two experiments) | LC99.9 (μM) (PBS) (S. aureus JAR; S. aureus JAR, 2 hours at 37° C. in PBS, concentration killing 99.9% of the bacteria, average of two experiments) | IC90 (MRSA LUH14616)
Ac-LAREYKKIVEKLKKWLRQVLRTLR-NH2 [Peptide 1302-38, JLAREYKKIVEKLKKWLRQVLRTLRB] | 102.4 µM | 2.4 µM |  |  | 
CC[C@@H](C)[C@@H](NC(=O)[C@H](CCCCN)NC(=O)[C@H](CCCCN)NC(=O)[C@H](Cc1ccc(O)cc1)NC(=O)[C@H](CCC(=O)O)NC(=O)[C@H](CCCNC(=N)N)NC(=O)[C@H](C)NC(=O)[C@H](CC(C)C)NC(C)=O)C(=O)N[C@H](C(=O)N[C@@H](CCC(=O)O)C(=O)N[C@@H](CCCCN)C(=O)N[C@@H](CC(C)C)C(=O)N[C@@H](CCCCN)C(=O)N[C@@H](CCCNC(=N)N)C(=O)N[C@@H](Cc1c[nH]c2ccccc12)C(=O)N[C@@H](CC(C)C)C(=O)N[C@@H](CCCNC(=N)N)C(=O)N[C@@H](CCC(N)=O)C(=O)N[C@H](C(=O)N[C@@H](CC(C)C)C(=O)N[C@@H](CCCNC(=N)N)C(=O)N[C@H](C(=O)N[C@@H](CC(C)C)C(=O)N[C@@H](CCCNC(=N)N)C(N)=O)[C@@H](C)O)C(C)C)C(C)C [Peptide 1301-8, JLAREYKKiVEKLKRWLRQVLRTLRB] (Ac-LAREYKK[dI]VEKLKRWLRQVLRTLR-NH2) | 38.4 µM | 0.6 µM |  |  | 
Ac-LAREYKKPVEKLKRWLPQVLRTLR-NH2 [Peptide 1302-16, JLAREYKKPVEKLKRWLPQVLRTLRB] | 102.4 µM | >3.2 µM |  |  | 
CCC(=O)N[C@@H](CC(C)C)C(=O)N[C@@H](C)C(=O)N[C@@H](CCCNC(=N)N)C(=O)N[C@@H](CCC(=O)O)C(=O)N[C@@H](Cc1ccc(O)cc1)C(=O)N[C@@H](CCCCN)C(=O)N[C@@H](CCCCN)C(=O)N[C@H](C(=O)N[C@H](C(=O)N[C@@H](CCC(=O)O)C(=O)N[C@@H](CCCCN)C(=O)N[C@@H](CC(C)C)C(=O)N[C@@H](CCCCN)C(=O)N[C@@H](CCCNC(=N)N)C(=O)N[C@@H](Cc1c[nH]c2ccccc12)C(=O)N[C@@H](CC(C)C)C(=O)N[C@@H](CCCNC(=N)N)C(=O)N[C@@H](CCC(N)=O)C(=O)N[C@H](C(=O)N[C@@H](CC(C)C)C(=O)N[C@@H](CCCNC(=N)N)C(=O)N[C@H](C(=O)N[C@@H](CC(C)C)C(=O)N[C@@H](CCCNC(=N)N)C(N)=O)[C@@H](C)O)C(C)C)C(C)C)[C@@H](C)CC [Peptide 1302-11, ULAREYKKIVEKLKRWLRQVLRTLRB] (Propionyl-LAREYKKIVEKLKRWLRQVLRTLR-NH2) |  |  | 102.4 µM | 1.6 µM | 
CC[C@H](C)[C@H](NC(=O)[C@H](CCCCN)NC(=O)[C@H](CCCCN)NC(=O)[C@H](Cc1ccc(O)cc1)NC(=O)[C@H](CCC(=O)O)NC(=O)[C@H](CCCNC(=N)N)NC(=O)[C@H](C)NC(=O)[C@H](CC(C)C)NC(C)=O)C(=O)N[C@H](C(=O)N[C@@H](CCC(=O)O)C(=O)N[C@@H](CCCCN)C(=O)N[C@H](CC(C)C)C(=O)N[C@@H](CCCCN)C(=O)N[C@@H](CCCNC(=N)N)C(=O)N[C@@H](Cc1c[nH]c2ccccc12)C(=O)N[C@@H](CC(C)C)C(=O)N[C@@H](CCCNC(=N)N)C(=O)N[C@@H](CCC(N)=O)C(=O)N[C@H](C(=O)N[C@@H](CC(C)C)C(=O)N[C@@H](CCCNC(=N)N)C(=O)N[C@H](C(=O)N[C@@H](CC(C)C)C(=O)N[C@@H](CCCNC(=N)N)C(N)=O)[C@@H](C)O)C(C)C)C(C)C [Peptide 1301-12, JLAREYKKIVEKlKRWLRQVLRTLRB] (Ac-LAREYKKIVEK[dL]KRWLRQVLRTLR-NH2) | 32.0 µM | 0.6 µM |  |  | 
Ac-IGKEFKRIVERIKRFLRELVRPLR-NH2 (N-terminus and C-terminus assumed) [Peptide P60.4Ac, reference compound] |  |  |  |  | 750 nM
Ac-LAREYKKIVEKLKRWLRAVLRTLR-NH2 [Peptide 1302-43, JLAREYKKIVEKLKRWLRAVLRTLRB] | 102.4 µM | 1.6 µM |  |  | 
Ac-LAREYKKIVEKIKRWLRQVLRTLR-NH2 [Peptide 1302-33, JLAREYKKIVEKIKRWLRQVLRTLRB] | 102.4 µM | 3.2 µM |  |  | 
